In paper PMC4676410 (Journal of medicinal chemistry, 2015):

Assays:
[1] = system: laboratory-adapted HIV-1 strains; assay: microbe, parasite or virus in culture; type: cell-based
[2] = system: HIV-1HXB2 (CXCR4-tropic) pseudovirus; assay: Single-cycle infection assay in U87-CD4-CXCR4 cells; details: U87-CD4-CXCR4, HIV-1HXB2
HIV-1 Env pseudoviruses = type: cell-based; details: TZM-bl, HIV-1HXB2

## Cc1nc(C(NC(=O)c2ccc(-c3ccc(Cl)cc3)[nH]2)C2CCCCN2)sc1CO (stereo not shown) [NBD-11021A, 5-(4-Chlorophenyl)-N-((5-(hydroxymethyl)-4-methylthiazol-2-yl)-(piperidin-2-yl)methyl)-1H-pyrrole-2-carboxamide]
[1]; MT-2, HIV-1IIIB
  IC50: 1300 ± 200 nM
[2]
  IC50: 3000 ± 400 nM

## Cc1nc(C(NC(=O)c2ccc(-c3ccc(Cl)cc3)[nH]2)C2CCCCN2)sc1CO (stereo not shown) [NBD-11021B, 5-(4-Chlorophenyl)-N-((5-(hydroxymethyl)-4-methylthiazol-2-yl)-(piperidin-2-yl)methyl)-1H-pyrrole-2-carboxamide]
[1]; Human immunodeficiency virus 1, MT2, MT-2, HIV-1IIIB
  IC50: 1800 ± 50 nM
HIV-1 Env pseudoviruses
  IC50: 2400 ± 100 nM
